# Experimental data: patent US7517857B2, “Immune-modulating peptide” (POSCO, priority 2002, dated 2009)
# Where a SMILES comes first, the peptide text is derived from it. [ ]: non-standard residue; d: D form.
# How the values were obtained:
# CT26, colon carcinoma = assay: Tumor growth in CT26-injected Balb/c mice; type: in vivo
# Procedure: (§1) CT26, EL4 were maintained at 37° C. in a humidified 5% CO2 atmosphere in RPMA1640 medium supplemented with 20% (vol/vol) heat-inactivated fetal bovine serum. For animal experiments, the cells were passaged two to five times after re-growth from frozen stocks. Log phase CT26 cells were detached from tissue culture flasks with 0.25% trypsin and 0.03% EDTA. CT26 and EL4 were washed and resuspended in PBS immediately before injection.
# In order to assess the antitumor effect of immuno-modulating peptide, Trp-Arg-Tyr-Met-Val-D-Met-CONH2, (WRYMVm; (SEQ ID NO: 4)), CT26, colon carcinoma was tested in Balb/c mice model. Tumor mass was measured in size every two days after 6 days from tumor cell inoculation.
# To find the effective tumor-suppressing dose of WRYMVm, 0.1 μg/mouse, 0.25 μg/mouse, and 1 μg/mouse of WRYMVm were administered to CT26/Balb/c model. […] A similar phenomenon is easily found in chemotactic migration of leukocytes. In view of the fact that FPRL1, which is a target receptor for WRYMVm, is related to the chemotactic migration event, it is concluded that WRYMVm-induced antitumor effect might be derived from leukocyte infiltration event. Therefore, it is quite necessary to reveal the direct relationship between the WRYMVm-induced antitumor effect and the leukocyte infiltration event.
# FPRL1 [1] = biological target: T1, FPRL1 (Homo sapiens, UniProt P25090); assay: ERK phosphorylation in FPRL1-expressing RBL-2H3 cells (immunoblot); type: cell-based; conditions: pretreatment prior to 1 μM WKYMVm, PTX 100 ng/ml, LY294002 50 μM, GFX 5 μM, BAPTA/AM 10 μM, PD98059 50 μM
# T1 construct: expressed in transfected cells; host or cells: RBL-2H3 (rat basophilic leukemia) cells, G418-selected
# T1 sequence (P25090 1-351): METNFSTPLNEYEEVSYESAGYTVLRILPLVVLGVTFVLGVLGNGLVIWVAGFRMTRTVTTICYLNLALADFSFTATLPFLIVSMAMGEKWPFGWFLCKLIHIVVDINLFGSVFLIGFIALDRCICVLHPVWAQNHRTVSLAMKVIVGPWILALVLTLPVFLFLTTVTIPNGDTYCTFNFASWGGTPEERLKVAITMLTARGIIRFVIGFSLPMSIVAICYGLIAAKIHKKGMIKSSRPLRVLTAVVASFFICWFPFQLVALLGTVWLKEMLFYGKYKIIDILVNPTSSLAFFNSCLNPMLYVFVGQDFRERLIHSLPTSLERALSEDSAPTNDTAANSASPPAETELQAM
# Procedure: (§2) Cultured RBL-2H3 cells were aliquoted into 2×10^6 cells and stimulated with the indicated concentrations of WKYMVm and the peptides of the present invention for the indicated lengths of time. FPR- or FPRL1-expressing RBL-2H3 cells were stimulated with 1 μM WKYMVm for various periods of time (FIG. 3A). Two cells were preincubated with a vehicle or 100 ng/ml of PTX (24 hr), 50 μM of LY294002 (15 min), 5 μM of GFX (15 min), 10 μM BAPTA/AM (60 min), or 50 μM PD98059 (60 min) prior to 1 μM of WKYMVm treatment (FIG. 3B). FPR- or FPRL1-expressing RBL2H3 cells were stimulated with 10 μM of the peptides of the present invention for 2 min or 5 min, respectively (FIG. 3C).
# (§3) After stimulation, the cells were washed with serum-free RPMI and lysed in a lysis buffer (20 mM Hepes, pH 7.2, 10% glycerol, 150 mM NaCl, 1% Triton X-100, 50 mM NaF, 1 mM Na3VO4, 10 μg/ml leupeptin, 10 μg/ml aprotinin, and 1 mM phenylmethylsulfonyl fluoride). The detergent-insoluble materials were pelleted by centrifugation (12,000×g, 15 min, at 4° C.), and the soluble supernatant fraction was removed and stored at −80° C. or used immediately. Protein concentrations in the lysates were determined using the Bradford protein assay reagent.
# (§4) Each sample ([…] of protein) was subjected to 10% SDS-PAGE and phosphorylated ERK was determined by an immunoblot analysis with an anti-phospho-ERK antibody. Protein samples were prepared for electrophoresis by addition of a concentrated sample buffer. The portions in the samples were then separated by an 10% SDS-polyacrylamide gel using the buffer system described by Laemmli (17).
# (§5) Following the electrophoresis, a western blot analysis with an anti-ERK2 antibody was performed to confirm that the same amounts of samples were used for the experiments. The proteins were blotted onto nitrocellulose membranes. The nitrocellulose membranes were then blocked by incubation with TBS (Tris-buffered saline, 0.05% Tween-20) containing 5% non-fat dry milk. Subsequently, the membranes were incubated with anti-phospho-ERK antibody, anti-phospho-Akt antibody or anti-Akt antibody washed with TBS. For a PKC translocation assay, an antibody for PKC isozyme-specific was incubated. Antigen-antibody complexes were visualized after incubating the membrane with a 1:5000 diluted goat anti-rabbit IgG or goat anti-mouse IgG antibody coupled to horseradish peroxidase and using the enhanced chemiluminescence detection system.
# FPR [2] = biological target: T2, FPR (Homo sapiens, UniProt P21462); assay: Exocytosis: β-hexosaminidase secretion in FPR-expressing RBL-2H3 cells; type: cell-based; conditions: FPR cells; 10 μM BAPTA/AM prior to 1 μM WKYMVm
# T2 construct: expressed in transfected cells; host or cells: RBL-2H3 (rat basophilic leukemia) cells, G418-selected
# T2 sequence (P21462 1-350): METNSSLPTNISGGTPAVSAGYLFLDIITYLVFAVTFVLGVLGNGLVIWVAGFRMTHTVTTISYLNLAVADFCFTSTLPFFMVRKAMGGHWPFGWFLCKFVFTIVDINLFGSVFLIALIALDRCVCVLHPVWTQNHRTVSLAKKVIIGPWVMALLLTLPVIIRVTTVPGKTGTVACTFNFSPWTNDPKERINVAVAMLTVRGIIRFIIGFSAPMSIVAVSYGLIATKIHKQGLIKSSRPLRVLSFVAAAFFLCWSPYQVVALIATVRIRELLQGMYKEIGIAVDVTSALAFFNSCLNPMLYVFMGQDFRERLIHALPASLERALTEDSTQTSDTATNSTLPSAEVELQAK
# Procedure: (§6) Granule secretion is one of the most important function of mast cells (20). The effect of WKYMVm on granule secretion was checked by measuring β-hexosaminidase secretion as described above (18). Briefly, RBL-2H3 cells (2×10^5/well) expressing FPR or FPRL1 were cultured overnight in a 24-well tissue culture plate. The cells were washed twice with Tyrode's buffer (137 mM NaCl, 12 mM NaHCO3, 5.6 mM glucose, 2.7 mM KCl, 1 mM CaCl2, 0.5 mM MgCl2, 0.4 mM NaH2PO4, 0.1g/100 ml BSA, and 25 mM HEPES, pH 7.4) and stimulated with each peptide. Various concentrations of WKYMVm were treated in FPR- or FPRL1-expressing RBL-2H3 cells (FIG. 5A). 1 μM of WKYMVm was used to stimulate two cell lines in the absence or presence of 10 μM BAPTA/AM (FIG. 5B). The reaction was terminated 20 min after stimulation by placing the plate on ice. Secretion of β-hexosaminidase into the medium was determined by incubating 50 μl of supernatant or cell lysate with 25 μl of 5 mM p-nitrophenyl-N-acetyl-β-D-glucosamide in 0.1 M sodium citrate buffer (pH 3.8) at 37° C. for 2 hr. At the end of the incubation, 50 μl of 0.4 M Na2CO3 were added. Absorbance was monitored at 405 nm. Data are means ±S.E. of a single representative of three experiments performed in triplicate. Values (means ±S.E.) were expressed as a percent of total β-hexosaminidase present in the cells.
# From the new finding that cytosolic calcium release was induced by WKYMVm and many of the substituted peptides of WKYMVm but not by some of them (WKGMVm (SEQ ID NO: 1), WKRMVm (SEQ ID NO: 11), D-Met^6 substituted peptides), the effect of the peptides on granule secretion in RBL cells was checked. 10 μM of each peptide was treated in FPR- (FIG. 6A) or FPRL1-expressing RBL-2H3 cells (FIG. 6B). The peptide-induced secretion of β-hexosaminidase was determined as above. Data are means ±S.E. of a single representative of three experiments performed in triplicate.
# FPRL1 [3] = biological target: T1, FPRL1; assay: Exocytosis: β-hexosaminidase secretion in FPRL1-expressing RBL-2H3 cells; type: cell-based; conditions: FPRL1 cells; 10 μM BAPTA/AM prior to 1 μM WKYMVm
# Procedure: as §6
# 10 μM of each peptide was treated in FPR- (FIG. 6A) or FPRL1-expressing RBL-2H3 cells (FIG. 6B). The peptide-induced secretion of β-hexosaminidase was determined as above. Data are means ±S.E. of a single representative of three experiments performed in triplicate.
# FPR [4] = biological target: T2, FPR; assay: ERK phosphorylation in FPR-expressing RBL-2H3 cells (immunoblot); type: cell-based; conditions: pretreatment prior to 1 μM WKYMVm, PTX 100 ng/ml, LY294002 50 μM, GFX 5 μM, BAPTA/AM 10 μM, PD98059 50 μM
# Procedure: as §2, §3, §4, §5
# FPRL1 [5] = biological target: T1, FPRL1; assay: [Ca2+]i increase in FPRL1-expressing RBL-2H3 cells (fura-2); type: cell-based
# Procedure: […] The level of [Ca^2+]i was determined fluorometrically by Grynkiewicz's method using fura-2/AM (15). Briefly, prepared cells were incubated with 3 μM fura-2/AM at 37° C. for 50 min in a fresh serum-free RPMI 1640 medium under continuous stirring. 2×10^6 cells were aliquoted for each assay in Ca^2+-free Locke's solution (154 mM NaCl, 5.6 mM KCl, 1.2 mM MgCl2, 5 mM HEPES, pH 7.3, 10 mM glucose, and 0.2 mM EGTA). Fluorescence changes at the dual excitation wavelengths of 340 nm and 380 nm and the emission wavelength of 500 nm were measured, and the calibrated fluorescence ratio was translated into [Ca^2+]i. The peak level of the increased [Ca^2+]i was monitored.
# […] The level of [Ca^2+]i was determined by the same procedures as above. The peak level of the increased [Ca^2+]i was monitored.
# human neutrophils = assay: Superoxide generation in human neutrophils (cytochrome c reduction); type: cell-based; conditions: for O^2− (nmol/10^6 cells), superoxide generation: cytochrome c reduction
# Procedure: Peripheral blood leukocyte concentrates were donated by the Ulsan Red Cross Blood Center (Ulsan, Korea). Human neutrophils were isolated according to the standard procedures of dextran sedimentation, hypotonic lysis of erythrocytes, and a lymphocyte separation medium gradient as described above (9). The isolated human neutrophils were then used promptly.
# The activity of the peptides, WKYMVm, peptides of SEQ ID NOs: 1 to 24, and wkymvm on superoxide generation in human neutrophils was measured. Superoxide anion generation was quantified by measuring reduction of cytochrome c using a microtiter 96-well plate ELISA reader (Bio-Tekinstruments, EL312e, Winooski, Vt.) as described (14). The human neutrophils (1×10^6 cells/100 μl of RPMI 1640 medium per well of a 96-well plate) were preincubated with 50 μM cytochrome c at 37° C. for 1 min and then incubated with the indicated concentrations of peptides. The superoxide generation was measured as a change in light absorption at 550 nm over 5 minutes at 1 min intervals. From at least four independent experiments, peptides with active amino acids at each position were chosen.
# EL4, lymphoma cells = assay: Tumor growth in EL4-injected C57/BL6 mice; type: in vivo; conditions: EL4 2×10^5 cells/mouse s.c.
# Procedure: as §1
# To confirm the antitumor effect of WRYMVm, another tumor model, EL4, lymphoma cells was tested. In order to form the tumor mass of EL4, EL4 (2×10^5 cells/mouse) were injected s.c to C57/BL6 mice. […] Overall, it appears obvious that WRYMVm has a tumor growth-suppressing effect in mice model.
compound,measurement,setting,value
"5′-TCGTCGTTTTGTCGTTTTGTCGTT-3′ [CpG ODN, reference compound]",survival,"tumor; survival rate, FIG. 12B",failed to prevent death
same,effect on tumor growth,"CT26, colon carcinoma; 100 μg/mouse i.p.",didn't show any effect on tumor growth
CC(=O)OCOC(=O)CN(CC(=O)OCOC(C)=O)c1ccccc1OCCOc1ccccc1N(CC(=O)OCOC(C)=O)CC(=O)OCOC(C)=O [BAPTA/AM],effect of inhibitor pretreatment on WKYMVm-induced ERKs activation,FPRL1 [1],could not effect WKYMVm-induced ERK activation
same,effect on WKYMVm-induced granule secretion,FPR [2],almost completely inhibited WKYMVm-induced granule secretion
same,effect on WKYMVm-induced granule secretion,FPRL1 [3],almost completely inhibited WKYMVm-induced granule secretion
same,effect of inhibitor pretreatment on WKYMVm-induced ERKs activation,FPR [4],could not effect WKYMVm-induced ERK activation
"CSCC[C@H](NC(=O)[C@H](Cc1ccc(O)cc1)NC(=O)[C@H](CCCNC(=N)N)NC(=O)[C@@H](N)Cc1c[nH]c2ccccc12)C(=O)N[C@H](C(=O)N[C@H](CCSC)C(N)=O)C(C)C [WRYMVm-NH2, Trp-Arg-Tyr-Met-Val-D-Met-NH2] (H-WRYMV[dM]-NH2; N-terminus assumed)",tumor growth suppression / antitumor activity,tumor; vincristine i.p. 2 μg/mouse 8 hours prior to peptide injection,ability to suppress tumor growth
same,tumor suppression,"CT26, colon carcinoma; 0.1 μg/mouse, compared with 0.25 and 1 μg/mouse",highest effectiveness in the tumor suppression
same,tumor suppression,"CT26, colon carcinoma; 1 μg/mouse",the tumor suppressing effect was lowered
same,tumor growth in CT26-injected mice (figure legend),"CT26, colon carcinoma; FIGS. 9A and 9B",attenuates tumor growth
same,[Ca^2+]i increasing activity,FPRL1 [5],higher affinity to FPRL1
same,EC50,"FPRL1 [5]; fura-2 loaded, read-out: EC50 (nM), intracellular calcium increase",0.12 ± 0.01 nM
same,superoxide generating activity,human neutrophils; 100 nM of peptides,stimulated superoxide generation
same,"O^2− (nmol/10^6 cells), superoxide generation",human neutrophils; peptide 100 nM,47.1 ± 11.23 nmol/10^6 cells
same,"O^2− (nmol/10^6 cells), superoxide generation",human neutrophils; peptide 10 μM,38.2 ± 6.54 nmol/10^6 cells
same,tumor mass suppression,"EL4, lymphoma cells",able to suppress tumor mass of EL4
